This data set can be described thus: Brain penetration (Kp,uu) in CD-1 mice after single IV bolus, with plasma and brain binding by equilibrium dialysis. It counts as in vivo. Particulars: mouse, brain and plasma (unbound brain/unbound plasma), male CD-1 mice, single IV bolus 1 mg/kg. On the procedure: The compounds disclosed herein were tested on CD-1 mice for brain penetration (Kp, uu) according to the following procedures.
Nine male CD-1 mice were administered TEST COMPOUND by single intravenous bolus administration at 1 mg/kg. The vehicle used for IV study was 5% DMSO, 5% solutol, 20% PEG300 and 70% water. The detailed dosing and sampling regimens are described in the following tables.
The body weights were in the range from 28.81 to 31.25 g for males on the first dosing day. All animals received a single intravenous bolus administration of TEST COMPOUND from the tail vein.
Each blood collection (about 0.06 mL per time point) was performed from saphenous vein of each animal into pre-chilled commercial K2-EDTA tubes as anti-coagulant and placed on wet ice until centrifugation.
Brain tissue was homogenized using homogenizing buffer (15 mM PBS (pH7.4): MeOH=2:1) at the ratio of 1:9 (1 g tissue with 9 mL buffer, the dilution ratio is 10). The tissue homogenate was kept at −60° C. or lower until LC-MS/MS analysis.
The concentrations of TEST COMPOUND in plasma and brain were determined by using an LC-MS/MS method.
The plasma and brain concentration of TEST COMPOUND in study animals was subjected to a non-compartmental pharmacokinetic analysis by using the Phoenix WinNonlin software program (version 6.3 or above, Pharsight). The linear/log trapezoidal rule was applied in obtaining the PK parameters.
Mouse Kp, uu=(% free in mouse brain*concentration in mouse brain)/(% free in mouse plasma*concentration in mouse plasma)
The dialysis apparatus was assembled according to the manufacturer's instruction. Each Cell was filled with 120 μL of spiked plasma sample and dialyzed against equal volume of dialysis buffer (PBS). The assay was performed in duplicate. The dialysis plates were sealed and incubated in an incubator at 37° C. with 5% CO2 and rotated at 100 rpm for 6 hours. At the end of incubation, the seals were removed and 50 μL of samples from both buffer and plasma chambers were transferred to a 96-well plate.
The dialysis apparatus was assembled according to the manufacturer's instruction. Each Cell was filled with 150 μL of brain homogenate sample and dialyzed against equal volume of dialysis buffer (PBS). The assay was performed in duplicate. The dialysis plates were sealed and incubated in an incubator at 37° C. with 5% CO2 and rotated at 100 rpm for 6 hours. At the end of incubation, the seals were removed and 50 μL of samples from both buffer and brain homogenate chambers were transferred into separate tubes on a plate.
With `Fc1cccc(F)c1C1=Nc2c(Cl)n[nH]c2-c2cc(N3CCOCC3)ccc2N1` (single isomer, unassigned) [Example 35, 4-(3-chloro-5-(2,6-difluorophenyl)-1,6-dihydrobenzo[d]pyrazolo[3,4-f][1,3]diazepin-9-y1)morpholine], the Kp uu is < 0.1. As for `Cc1n[nH]c2c1N=C(c1c(F)cccc1F)Nc1ccc(N3CCO[C@H](C(C)(C)O)C3)cc1-2` (single isomer, unassigned) [Example 36], the figure is < 0.1.

Regarding `Cc1n[nH]c2c1N=C(c1c(F)cccc1F)Nc1c-2cc(N2CCO[C@@H](C(C)(C)O)C2)nc1C` (single isomer, unassigned) [Example 39], the Kp uu is < 0.1. As to `Cc1n[nH]c2c1N=C(c1c(F)cccc1F)Nc1cnc(N3CCS(=O)(=O)CC3)cc1-2` [Example 2, 4-[8-(2,6-difluorophenyl)-5-methyl-3,4,7,9,12-pentazatricyclo[8.4.0.02,6]tetradeca-1(10),2(6),4,7,11,13-hexaen-13-y1]-1,4-thiazinane 1,1-dioxide], the Kp uu is < 0.1. As for `Cc1n[nH]c2c1N=C(c1c(F)cccc1F)Nc1cnc(N3C[C@@H]4C[C@H]3CO4)cc1-2` [Example 6, (1S,4S)-5-[8-(2,6-difluorophenyl)-5-methyl-3,4,7,9,12-pentazatricyclo[8.4.0.02,6]tetradeca-1(10),2(6),4,7,11,13-hexaen-13-y1]-2-oxa-5-azabicyclo[2.2.1]heptane], the Kp uu is < 0.1. As to `[2H]C1([2H])OC([2H])([2H])C([2H])([2H])N(c2cc3c(cn2)NC(c2c(F)cccc2F)=Nc2c(C)n[nH]c2-3)C1([2H])[2H]` [Example 14, 2,2,3,3,5,5,6,6-octadeuterio-4-[8-(2,6-difluorophenyl)-5-methyl-3,4,7,9,12-pentazatricyclo[8.4.0.02,6]tetradeca-1(10),2(6),4,7,11,13-hexaen-13-yl]morpholine], the Kp uu is < 0.1.

For `Cc1n[nH]c2c1N=C(c1c(F)cccc1F)Nc1cnc(N3CCC[C@@H](C#N)C3)cc1-2` [Example 18, (3R)-1-[8-(2,6-difluorophenyl)-5-methyl-3,4,7,9,12-pentazatricyclo[8.4.0.02,6]tetradeca-1(10),2(6),4,7,11,13-hexaen-13-yl]piperidine-3-carbonitrile], the Kp uu is < 0.1. Regarding `[2H]C1([2H])OC([2H])([2H])C([2H])([2H])N(c2cc3c(cn2)NC(c2c(F)cccc2F)=Nc2cn[nH]c2-3)C1([2H])[2H]` [Example 20, 2,2,3,3,5,5,6,6-octadeuterio-4-[8-(2,6-difluorophenyl)-3,4,7,9,12-pentazatricyclo[8.4.0.02,6]tetradeca-1(10),2(6),4,7,11,13-hexaen-13-yl]morpholine], the Kp uu is < 0.1. In the case of `Fc1cccc(F)c1C1=Nc2c(Cl)n[nH]c2-c2cc(N3CCOCC3)ncc2N1` [Example 23, 4-(3-chloro-5-(2,6-difluorophenyl)-1,6-dihydropyrazolo[4,3-d]pyrido[4,3-f][1,3]diazepin-9-yl)morpholine], the Kp uu was < 0.1. Consider `C[C@H]1CN(c2cc3c(cn2)NC(c2c(F)cccc2F)=Nc2c(Cl)n[nH]c2-3)C[C@H](C)O1` [Example 26, (2S,6S)-4-(3-chloro-5-(2,6-difluorophenyl)-1,6-dihydropyrazolo[4,3-d]pyrido[4,3-f][1,3]diazepin-9-yl)-2,6-dimethylmorpholine], for which the Kp uu was < 0.1. Consider `[2H]C([2H])([2H])c1n[nH]c2c1N=C(c1c(F)cccc1F)Nc1cnc(N3CCO[C@H](C)C3)cc1-2` [Example 27, (2R)-4-[8-(2,6-difluorophenyl)-5-(trideuteriomethyl)-3,4,7,9,12-pentazatricyclo[8.4.0.02,6]tetradeca-1(10),2(6),4,7,11,13-hexaen-13-y1]-2-methyl-morpholine], for which the Kp uu was < 0.1. On to `Cc1n[nH]c2c1N=C(c1c(F)cccc1F)Nc1cnc(-c3cnn(CC(F)F)c3)cc1-2` [Example 28, 13-[1-(2,2-difluoroethyl)pyrazol-4-y1]-8-(2,6-difluorophenyl)-5-methyl-3,4,7,9,12-pentazatricyclo[8.4.0.02,6]tetradeca-1(10),2(6),4,7,11,13-hexaene], for which the Kp uu was ≥ 0.1.

As for `Fc1cccc(F)c1C1=Nc2cn[nH]c2-c2cc(N3CCOCC3)ncc2N1` [Example 33, 4-[8-(2,6-difluorophenyl)-3,4,7,9,12-pentazatricyclo[8.4.0.02,6]tetradeca-1(10),2(6),4,7,11,13-hexaen-13-yl]morpholine], the Kp uu is < 0.1. With `Cc1n[nH]c2c1N=C(c1c(F)cccc1F)Nc1c-2cc(N2CCO[C@@H](CO)C2)nc1C` [Example 37, (R)-(4-(5-(2,6-difluorophenyl)-3,7-dimethyl-1,6-dihydropyrazolo[4,3-d]pyrido[4,3-f][1,3]diazepin-9-yl)morpholin-2-y1)methanol], the Kp uu is < 0.1. Consider `Cc1n[nH]c2c1N=C(c1c(F)cccc1F)Nc1c-2cc(N2CCC(C)(O)CC2)nc1C` [Example 41, 1-(5-(2,6-difluorophenyl)-3,7-dimethyl-1,6-dihydropyrazolo[4,3-d]pyrido[4,3-f][1,3]diazepin-9-yl)-4-methylpiperidin-4-ol], for which the Kp uu is < 0.1. `Cn1cc(-c2cc3c(cn2)NC(c2c(F)cccc2F)=Nc2c(Cl)n[nH]c2-3)cn1` [Example 54, 3-chloro-5-(2,6-difluorophenyl)-9-(1-methyl-1H-pyrazol-4-yl)-1,6-dihydropyrazolo[4,3-d]pyrido[4,3-f][1,3]diazepine]: the Kp uu is < 0.1.

(Values after US20240228493A1, “LRRK2 INHIBITORS AND USES THEREOF” (NEURON23, ICN., priority 2022, published 2024).)
